According to patent publication US8933039B2 (NPS Pharmaceuticals, Inc., priority 1995, dated 2015):
Non-standard residues stand in square brackets, D forms with d. Residues, ends and D or L forms follow the SMILES beside them. *: point of attachment. Desaminotyrosyl = O=C(CCc1ccc(O)cc1)*; Tle = CC(C)(C)[C@H](N)C(=O)O

Columns and labels:
[1] = system: CD1 mice; test: Intestinotrophic activity assessment: small bowel weight in mice; assay type: in vivo; settings: for % Activity (small bowel inducing activity relative to native rat GLP-2(1-33) = 100%): mice, as Example 4; for % Increase in small bowel weight: CD1 mice, 2.5 μg peptide s.c. b.i.d. in PBS, sacrificed 10 or 14 days, relative to vehicle only
Method in brief: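 Activity expressed against native rat GLP-2(1-33) (100%) and as percent bowel-weight change over vehicle controls, from excised pylorus-to-cecum small bowel. Dosing: 2.5 μg peptide subcutaneously twice daily to 6-week female CD1 mice (n=3-4), killed at day 10 or 14 after fasting ≥20 h.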

[2] = molecular target: DPP-IV (Homo sapiens, UniProt P27487); test: Assay for resistance to dipeptidyl peptidase IV (RP-HPLC of cleavage product); settings: human, isolated human placental DPP-IV (dipeptidyl peptidase IV), pH 7.4, % Cleaved by DPP-IV, as Example 3: human placental DPP-IV, 37° C., PBS pH 7.4
Chain of DPP-IV (P27487 whole entry): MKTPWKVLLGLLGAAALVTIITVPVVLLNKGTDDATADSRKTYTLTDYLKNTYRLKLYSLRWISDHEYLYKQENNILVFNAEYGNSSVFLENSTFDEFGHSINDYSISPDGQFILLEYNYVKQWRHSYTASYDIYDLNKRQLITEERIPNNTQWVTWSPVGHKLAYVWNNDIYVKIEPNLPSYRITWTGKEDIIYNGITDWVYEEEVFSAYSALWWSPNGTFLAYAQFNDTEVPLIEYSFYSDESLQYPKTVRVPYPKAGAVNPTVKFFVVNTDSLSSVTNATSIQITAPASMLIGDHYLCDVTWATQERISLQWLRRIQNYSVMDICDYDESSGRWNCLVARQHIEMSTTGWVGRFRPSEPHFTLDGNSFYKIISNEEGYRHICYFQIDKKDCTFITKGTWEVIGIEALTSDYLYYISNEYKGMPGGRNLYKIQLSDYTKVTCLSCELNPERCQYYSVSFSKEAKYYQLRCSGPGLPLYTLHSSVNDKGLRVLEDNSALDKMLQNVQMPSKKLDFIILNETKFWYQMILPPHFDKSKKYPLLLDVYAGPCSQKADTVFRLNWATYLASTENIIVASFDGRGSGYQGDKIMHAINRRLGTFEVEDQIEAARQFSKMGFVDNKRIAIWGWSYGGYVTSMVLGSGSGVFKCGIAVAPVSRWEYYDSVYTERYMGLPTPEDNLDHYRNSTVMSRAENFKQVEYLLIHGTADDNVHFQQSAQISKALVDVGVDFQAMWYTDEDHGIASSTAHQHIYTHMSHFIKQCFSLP
Method: The mixture was incubated at 37° C. in a circulating water bath for 24 hours. The incubation was quenched by the addition of 50 μl of a solution of diprotin A prepared at a concentration of 4 mg/ml in PBS. Each peptide was tested in duplicate.
Each sample was analyzed by reverse-phase (RP) HPLC as follows: 90 μl of the quenched incubation mixture was injected onto a Rainin Dynamax 300 Å, C18, 5 micron, 4.6×250 millimeter column. The samples were eluted with 0.1% trifluoroacetic acid (TFA) in water modified with 0.1% acetonitrile using a linear gradient and a flow rate of 1 ml per minute. Sample components were detected at 214 nanometers (nm). The extent of cleavage was measured by relative integration of the peak corresponding to the cleavage product compared to that of the remaining undigested parent peptide.

Row | Compound | % Activity (small bowel inducing activity relative to native rat GLP-2(1-33) = 100%) [1] | metabolised at 24 h, 0.19 mg/ml [2] | % Increase in small bowel weight [1]
1 | CC[C@H](C)[C@H](NC(=O)[C@H](Cc1ccccc1)NC(=O)[C@H](CC(=O)O)NC(=O)[C@H](CCCNC(=N)N)NC(=O)[C@H](C)NC(=O)[C@H](C)NC(=O)[C@H](CC(C)C)NC(=O)[C@H](CC(N)=O)NC(=O)[C@H](CC(=O)O)NC(=O)[C@H](CC(C)C)NC(=O)[C@@H](NC(=O)[C@@H](NC(=O)[C@H](CC(N)=O)NC(=O)[C@H](CCSC)NC(=O)[C@H](CCC(=O)O)NC(=O)[C@H](CC(=O)O)NC(=O)[C@H](CO)NC(=O)[C@H](Cc1ccccc1)NC(=O)[C@H](CO)NC(=O)CNC(=O)[C@H](CC(=O)O)NC(=O)[C@H](C)NC(=O)CCc1ccc(O)cc1)[C@@H](C)O)[C@@H](C)CC)C(=O)N[C@@H](CC(N)=O)C(=O)N[C@@H](Cc1c[nH]c2ccccc12)C(=O)N[C@@H](CC(C)C)C(=O)N[C@H](C(=O)N[C@@H](CCC(N)=O)C(=O)N[C@H](C(=O)N[C@@H](CCCCN)C(=O)N[C@H](C(=O)N[C@H](C(=O)N[C@@H](CC(=O)O)C(=O)O)[C@@H](C)O)[C@@H](C)CC)[C@@H](C)O)[C@@H](C)CC [[desNH2Tyr1]hGLP-2(1-33)] (Desaminotyrosyl-ADGSFSDEMNTILDNLAARDFINWLIQTKITD-OH) | 125% | 15% | 
2 | CC[C@H](C)[C@H](NC(=O)[C@H](Cc1ccccc1)NC(=O)[C@H](CC(=O)O)NC(=O)[C@H](CCCNC(=N)N)NC(=O)[C@H](C)NC(=O)[C@H](C)NC(=O)[C@H](CC(C)C)NC(=O)[C@H](CC(N)=O)NC(=O)[C@H](CC(=O)O)NC(=O)[C@H](CC(C)C)NC(=O)[C@@H](NC(=O)[C@@H](NC(=O)[C@H](CC(N)=O)NC(=O)[C@H](CCSC)NC(=O)[C@H](CCC(=O)O)NC(=O)[C@H](CC(=O)O)NC(=O)[C@H](CO)NC(=O)[C@H](Cc1ccccc1)NC(=O)[C@H](CO)NC(=O)CNC(=O)[C@H](CC(=O)O)NC(=O)[C@@H](NC(=O)[C@@H](N)Cc1c[nH]cn1)C(C)(C)C)[C@@H](C)O)[C@@H](C)CC)C(=O)N[C@@H](CC(N)=O)C(=O)N[C@@H](Cc1c[nH]c2ccccc12)C(=O)N[C@@H](CC(C)C)C(=O)N[C@H](C(=O)N[C@@H](CCC(N)=O)C(=O)N[C@H](C(=O)N[C@@H](CCCCN)C(=O)N[C@H](C(=O)N[C@H](C(=O)N[C@@H](CC(=O)O)C(=O)O)[C@@H](C)O)[C@@H](C)CC)[C@@H](C)O)[C@@H](C)CC [[tBuGly2]hGLP-2] (H-H[Tle]DGSFSDEMNTILDNLAARDFINWLIQTKITD-OH) | 123% | 0% | 
3 | CC[C@H](C)[C@H](NC(=O)[C@H](Cc1ccccc1)NC(=O)[C@H](CC(=O)O)NC(=O)[C@H](CCCNC(=N)N)NC(=O)[C@H](C)NC(=O)[C@H](C)NC(=O)[C@H](CC(C)C)NC(=O)[C@H](CC(N)=O)NC(=O)[C@H](CC(=O)O)NC(=O)[C@H](CC(C)C)NC(=O)[C@@H](NC(=O)[C@@H](NC(=O)[C@H](CC(N)=O)NC(=O)[C@H](CCSC)NC(=O)[C@H](CCC(=O)O)NC(=O)[C@H](CC(=O)O)NC(=O)[C@H](CO)NC(=O)[C@H](Cc1ccccc1)NC(=O)[C@H](CO)NC(=O)CNC(=O)[C@H](CC(=O)O)NC(=O)[C@H](C)NC(=O)[C@@H](N)Cc1c[nH]cn1)[C@@H](C)O)[C@@H](C)CC)C(=O)N[C@@H](CC(N)=O)C(=O)N[C@@H](Cc1c[nH]c2ccccc12)C(=O)N[C@@H](CC(C)C)C(=O)N[C@H](C(=O)N[C@@H](CCC(N)=O)C(=O)N[C@H](C(=O)N[C@@H](CCCCN)C(=O)N[C@H](C(=O)N[C@H](C(=O)N[C@@H](CC(=O)O)C(=O)O)[C@@H](C)O)[C@@H](C)CC)[C@@H](C)O)[C@@H](C)CC [hGLP-2(1-33), reference compound] | 100% | 60% | 
4 | Ac-HADGSFSDEMNTILDNLATRDFINWLIQTKITD-OH [Ac-ratGLP-2(1-33)] | 44% | 0% | 
5 | H-AGDGSFSDEMNTILDNLAARDFINWLIQTKITD-OH [[Ala1,Gly2]hGLP-2(1-33)] | 53% | 0% | 23%
6 | H-DADGSFSDEMNTILDNLAARDFINWLIQTKITD-OH [[Asp1]hGLP-2(1-33)] | 60% | 0% | 
7 | H-HADASFSDEMNTILDNLATRDFINWLIQTKITD-OH [[Ala4]ratGLP-2(1-33)] | 59% | 72% | 30%
8 | H-HADGAFADEMNTILDNLAARDFINWLIQTKITD-OH [[Ala5, Ala7]hGLP-2(1-33)] | 108% | 77% | 
9 | H-HADGSFSDEMNTILDNLAARDFINFLIQTKITD-OH [[Phe25]hGLP-2(1-33)] | 114% | 54% | 
10 | H-HADGSFSDEMNTILDNLAARDFINWLIQTKITE-OH [[Glu33]hGLP-2(1-33)] | 121% | 55% | 
11 | H-HADGSFSDEMNTILDNLAARDFINWLIQTRITD-OH [[Arg30]hGLP-2(1-33)] | 103% | 59% | 
12 | H-HADGSFSDEMNTILDNLAARDFINYLIQTKITD-OH [[Tyr25]hGLP-2(1-33)] | 64% | 48% | 
13 | H-HAEGSFSDEMNTILDNLATRDFINWLIQTKITD-OH [[Glu3]ratGLP-2(1-33)] | 65% | 50% | 33%
14 | H-HAPGSFSDEMNTILDNLAARDFINWLIQTKITD-OH [[Pro3]hGLP-2(1-33)] | 140% | 0% | 
15 | H-HDDGSFSDEMNTILDNLAARDFINWLIQTKITD-OH [[Asp2]hGLP-2(1-33)] | 83% | 0% | 
16 | H-HEDGSFSDEMNTILDNLAARDFINWLIQTKITD-OH [[Glu2]hGLP-2(1-33)] | 93% | 0% | 
17 | H-HFDGSFSDEMNTILDNLAARDFINWLIQTKITD-OH [[Phe2]hGLP-2(1-33)] | 50% | 0% | 
18 | H-HGAGSFSDEMNTILDNLAARDFINWLIQTKITD-OH [[Gly2,Ala3]hGLP-2(1-33)] | 44% | 0% | 18%
19 | H-HGDASFSDEMNTILDNLAARDFINWLIQTKITD-OH [[Gly2,Ala4]hGLP-2(1-33)] | 100% | 0% | 36%
20 | H-HGDGAFSDEMNTILDNLAARDFINWLIQTKITD-OH [[Gly2,Ala5]hGLP-2(1-33)] | 136% | 0% | 38%
21 | H-HGDGSFSDEMNTILDNLAARDFIAWLIQTKITD-OH [[Gly2,Ala24]hGLP-2(1-33)] | 139% | 0% | 67%
22 | H-HHDGSFSDEMNTILDNLAARDFINWLIQTKITD-OH [[His2]hGLP-2(1-33)] | 0% | 0% | 
23 | H-HIDGSFSDEMNTILDNLAARDFINWLIQTKITD-OH [[Ile2]hGLP-2(1-33)] | 90% | 0% | 
24 | H-HKDGSFSDEMNTILDNLAARDFINWLIQTKITD-OH [[Lys2]hGLP-2(1-33)] | 90% | 0% | 
25 | H-HMDGSFSDEMNTILDNLAARDFINWLIQTKITD-OH [[Met2]hGLP-2(1-33)] | 170% | 0% | 
26 | H-HNDGSFSDEMNTILDNLAARDFINWLIQTKITD-OH [[Asn2]hGLP-2(1-33)] | 67% | 0% | 
27 | H-HPDGSFSDEMNTILDNLAARDFINWLIQTKITD-OH [[Pro2]hGLP-2(1-33)] | 50% | 16% | 
28 | H-HQDGSFSDEMNTILDNLAARDFINWLIQTKITD-OH [[Gln2]hGLP-2(1-33)] | 100% | 0% | 
29 | H-HSDGSFSDEMNTILDNLAARDFINWLIQTKITD-OH [[Ser2]hGLP-2(1-33)] | 167% | 0% | 
